# Patent US8741836B2, “Polypeptides” (Novo Nordisk A/S, priority 2011, dated 2014)
# Starred links: 1 amine or outer side, 2 acyl side, 3 side chain; linkers in the order of their positions; H or OH if unused. Positions of bridges follow the written chain, without caps; N, C: chain ends. Residues, ends and D or L forms follow the SMILES beside them. *: point of attachment. C20 diacid = O=C(O)CCCCCCCCCCCCCCCCCCC(=O)*; C18 diacid = O=C(O)CCCCCCCCCCCCCCCCC(=O)*; γGlu = O=C(O)[C@H](CCC(=O)[*:2])N[*:1]
# Experiment: Assay (III) ThT fibrillation assay for physical stability
# Assay type: physicochemical
# Conditions: for ThT pH 4.0 lag time: pH 4.0, ThT fibrillation assay
# From the text: Assay (III)—ThT Fibrillation Assays for the Assessment of Physical Stability of Protein formulations Low physical stability of a polypeptide may lead to amyloid fibril formation, which is observed as well-ordered, thread-like macromolecular structures in the sample eventually resulting in gel formation. This has traditionally been measured by visual inspection of the sample. However, that kind of measurement is very subjective and depending on the observer. Therefore, the application of a small molecule indicator probe is much more advantageous. Thioflavin T (ThT) is such a probe and has a distinct fluorescence signature when binding to fibrils [Naiki et al. (1989) Anal. Biochem. 177, 244-249; LeVine (1999) Methods. Enzymol. […], 274-284]. The time course for fibril formation can be described by a sigmoidal curve with the following expression [Nielsen et al. (2001) Biochemistry 40, 6036-6046]: [formula] Here, F is the ThT fluorescence at the time t. The constant t0 is the time needed to reach 50% of maximum fluorescence. […] Few of those intermediates nucleate to form a template onto which further intermediates may assembly and the fibrillation proceeds. The lag-time corresponds to the interval in which the critical mass of nucleus is built up and the apparent rate constant is the rate with which the fibril itself is formed. Sample Preparation Samples were prepared freshly before each assay. Each sample composition is described in each example. The pH of the sample was adjusted to the desired value using appropriate amounts of concentrated NaOH and HClO4 or HCl. Thioflavin T was added to the samples from a stock solution in H2O to a final concentration of 1 μM. Sample aliquots of 200 μl were placed in a 96 well microtiter plate (Packard OptiPlate™-96, white polystyrene). Usually, four or eight replica of each sample (corresponding to one test condition) were placed in one column of wells. The plate was sealed with Scotch Pad (Qiagen). Incubation and Fluorescence Measurement Incubation at given temperature, shaking and measurement of the ThT fluorescence emission were done in a Fluoroskan Ascent FL fluorescence platereader or Varioskan platereader (Thermo Labsystems). The temperature was adjusted to 37° C. The orbital shaking was adjusted to 960 rpm with an amplitude of 1 mm in all the presented data. Fluorescence measurement was done using excitation through a 444 nm filter and measurement of emission through a 485 nm filter. Each run was initiated by incubating the plate at the assay temperature for 10 min. The plate was measured every 20 minutes for a desired period of time. Between each measurement, the plate was shaken and heated as described. Data Handling The measurement points were saved in Microsoft Excel format for further processing and curve drawing and fitting was performed using GraphPad Prism. The background emission from ThT in the absence of fibrils was negligible. The data points are typically a mean of four or eight samples and shown with standard deviation error bars. Only data obtained in the same experiment (i.e. samples on the same plate) are presented in the same graph ensuring a relative measure of fibrillation between experiments. The data set may be fitted to Eq. (1). However, since full sigmodial curves in this case are not always achieved during the measurement time, the degree of fibrillation is expressed as ThT fluorescence tabulated as the mean of the samples and shown with the standard deviation at various time points. Measurement of Initial and Final Concentrations The polypeptide concentration in each of the tested formulations were measured both before application in the ThT fibrillation assay (“Initial”) and after completion of the ThT fibrillation (“After ThT assay”). Concentrations were determined by reverse HPLC methods using a pramlintide standard as a reference. Before measurement after completion 150 μl was collected from each of the replica and transferred to an Eppendorf tube. […]
SMILES,ThT pH 4.0 lag time,ThT pH 4.0 lag time (physical stability in fibrillogenesis assay) (pH 4.0)
"CC[C@H](C)[C@H](NC(=O)[C@@H]1CCCN1C(=O)CNC(=O)[C@H](Cc1ccccc1)NC(=O)[C@H](CC(N)=O)NC(=O)[C@H](CC(N)=O)NC(=O)[C@H](CO)NC(=O)[C@H](CO)NC(=O)[C@H](Cc1c[nH]cn1)NC(=O)[C@H](CCCNC(=N)N)NC(=O)[C@H](CC(C)C)NC(=O)[C@H](Cc1ccccc1)NC(=O)[C@H](CCC(=O)O)NC(=O)[C@H](C)NC(=O)[C@H](CC(C)C)NC(=O)[C@H](CCCNC(=N)N)NC(=O)[C@H](CCC(N)=O)NC(=O)[C@@H](NC(=O)[C@H](C)NC(=O)[C@@H]1CSSC[C@H](NC(=O)[C@H](CCCCN)NC(=O)CC[C@H](NC(=O)CCCCCCCCCCCCCCCCC(=O)O)C(=O)O)C(=O)N[C@@H](CC(N)=O)C(=O)N[C@@H]([C@@H](C)O)C(=O)N[C@@H](C)C(=O)N[C@@H]([C@@H](C)O)C(=O)N1)[C@@H](C)O)C(=O)N[C@@H](CC(C)C)C(=O)N1CCC[C@H]1C(=O)N1CCC[C@H]1C(=O)N[C@H](C(=O)N[C@@H](CC(N)=O)C(=O)N[C@H](C(=O)NCC(=O)N[C@@H](CO)C(=O)N[C@@H](Cc1c[nH]cn1)C(=O)N[C@H](C(=O)N[C@@H](Cc1ccc(O)cc1)C(N)=O)[C@@H](C)O)C(C)C)[C@@H](C)O [Example 61, N-alpha-[(S)-4-Carboxy-4-(17-carboxyheptadecanoylamino)butyryl]-[Glu14,Arg17,His35]-pramlintide] ({C18 diacid-γGlu}-KCNTATCATQRLAEFLRHSSNNFGPILPPTNVGSHTY-NH2; disulfide 2-7)",>45 h,
"CC[C@H](C)[C@H](NC(=O)[C@@H]1CCCN1C(=O)CNC(=O)[C@H](Cc1ccccc1)NC(=O)[C@H](CC(N)=O)NC(=O)[C@H](CCC(N)=O)NC(=O)[C@H](CO)NC(=O)[C@H](CO)NC(=O)[C@H](Cc1c[nH]cn1)NC(=O)[C@H](Cc1c[nH]cn1)NC(=O)[C@H](CC(C)C)NC(=O)[C@H](Cc1ccccc1)NC(=O)[C@H](CCC(=O)O)NC(=O)[C@H](C)NC(=O)[C@H](CC(C)C)NC(=O)[C@H](CCCNC(=N)N)NC(=O)[C@H](CCC(N)=O)NC(=O)[C@@H](NC(=O)[C@H](C)NC(=O)[C@@H]1CSSC[C@H](NC(=O)[C@H](CCCCN)NC(=O)CC[C@H](NC(=O)CCCCCCCCCCCCCCCCCCC(=O)O)C(=O)O)C(=O)N[C@@H](CC(N)=O)C(=O)N[C@@H]([C@@H](C)O)C(=O)N[C@@H](C)C(=O)N[C@@H]([C@@H](C)O)C(=O)N1)[C@@H](C)O)C(=O)N[C@@H](CC(C)C)C(=O)N1CCC[C@H]1C(=O)N1CCC[C@H]1C(=O)N[C@H](C(=O)N[C@@H](CC(N)=O)C(=O)N[C@H](C(=O)NCC(=O)N[C@@H](CO)C(=O)N[C@@H](CC(N)=O)C(=O)N[C@H](C(=O)N1CCC[C@H]1C(N)=O)[C@@H](C)O)C(C)C)[C@@H](C)O [Example 130, N-alpha-[(S)-4-Carboxy-4-(19-carboxynonadecanoylamino)butyryl]-[Glu14,His17,Gln21,Pro37]-pramlintide] ({C20 diacid-γGlu}-KCNTATCATQRLAEFLHHSSQNFGPILPPTNVGSNTP-NH2; disulfide 2-7)",>45 h,>45 h
